Like-named read-outs stand apart in the source and are kept apart here.

Assay [1] has as its target KRAS-WT (Homo sapiens, UniProt P01116). The experiment in a line: SOS-catalyzed nucleotide exchange assay (Procedure A, TR-FRET), KRAS-WT. The format is biochemical. The following applies: nucleotide exchange, read-out: KRAS WT GNE IC50. The method in brief: (§1)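 RAS (G12C carries C51S/C80L/C118S) loaded with Bodipy-GDP, complexed with Tb-streptavidin; cpd 60 min RT; + SOS/3 mM GTP. G12C 3/40 nM, WT 1/40, NRAS 1.25/40 nM RAS/SOS, 60 min; G12V 1.25/160 nM, 90 min. Normalized to DMSO and saturating inhibitor; 4PL fit.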
On the technique in general: TR-FRET usually uses a lanthanide donor and a delayed reading to cut background.

Assay [2] concerns the target KRAS-G12D (Homo sapiens, UniProt P01116, G12D). The experiment in a line: SOS-catalyzed nucleotide exchange assay (Procedure A, TR-FRET), KRAS-G12D. Format: biochemical. The method in brief: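 Signal ratio (520/495 nm, excitation 340 nm) reports Bodipy-GDP retention on biotinylated RAS after SOS-catalyzed exchange with 3 mM GTP. SOS was 40 nM, except 160 nM for G12V. Room-temperature exchange lasted 60 min (90 min for G12V), following a 60 min compound preincubation.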

The target of assay [3] is KRAS-G12V (Homo sapiens, UniProt P01116, G12V). The experiment in a line: SOS-catalyzed nucleotide exchange assay (Procedure A, TR-FRET), KRAS-G12V. Format: biochemical. In short, it runs like this: as §1
Assay [4] deals with AsPC-1 cells. The assay is described as follows: Cellular phospho-ERK assay, AsPC-1 cells (homozygous KRAS-G12D). Format: cell-based. The following applies: Homo sapiens, read-out: AsPC1 pERK IC50. The method in brief:
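Readout: p-ERK/total ERK ratio measured by Alpha SureFire Ultra multiplex in lysates after 2 h compound exposure (37 °C, 5% CO2). Dosing ran 10 points, 1:3 dilutions, highest final concentration 30 μM. IC50 values derived by four-parameter logistic regression.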

Where [5] appears, read: nucleotide exchange, read-out: KRAS G12D GNE IC50.
Setting [6] is: nucleotide exchange, read-out: KRAS G12V GNE IC50.
[7] abbreviates: ASPC1, 2 h, 2 hours compound incubation.

Chain of KRAS-G12D (P01116 with tags, fused parts or gaps isoform P01116-2 G12D): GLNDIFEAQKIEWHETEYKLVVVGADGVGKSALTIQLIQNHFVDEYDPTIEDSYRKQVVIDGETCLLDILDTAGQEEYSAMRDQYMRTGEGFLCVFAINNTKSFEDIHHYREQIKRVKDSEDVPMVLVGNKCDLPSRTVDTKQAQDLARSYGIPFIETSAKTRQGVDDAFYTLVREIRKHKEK
Chain of KRAS-WT (P01116 with tags, fused parts or gaps isoform P01116-2): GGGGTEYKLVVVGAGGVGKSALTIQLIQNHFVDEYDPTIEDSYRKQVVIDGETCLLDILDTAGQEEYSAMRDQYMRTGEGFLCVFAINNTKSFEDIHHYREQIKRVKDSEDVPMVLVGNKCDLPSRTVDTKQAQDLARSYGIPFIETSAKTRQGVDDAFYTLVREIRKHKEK
Chain of KRAS-G12V (P01116 with tags, fused parts or gaps isoform P01116-2 G12V): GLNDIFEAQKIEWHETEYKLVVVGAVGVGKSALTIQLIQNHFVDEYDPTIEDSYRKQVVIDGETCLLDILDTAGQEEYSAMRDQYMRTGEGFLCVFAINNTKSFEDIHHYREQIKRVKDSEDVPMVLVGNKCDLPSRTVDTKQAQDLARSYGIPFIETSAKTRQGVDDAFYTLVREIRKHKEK

`CO[C@@H]1C[C@@H](COc2nc(N3CCOC[C@@](C)(O)C3)c3c(n2)sc2c(-c4c(C5CC5)c(C(F)(F)F)cc5[nH]ncc45)nccc23)N(C)C1` [Ex-85, (6S)-4-(8-(5-cyclopropyl-6-(trifluoromethyl)-1H-indazol-4-yl)-2-(((2S,4R)-4-methoxy-1-methylpyrrolidin-2-yl)methoxy)pyrido[4′,3′:4,5]thi-eno[2,3-d]pyrimidin-4-yl)-6-methyl-1,4-oxazepan-6-ol]: the half-maximal inhibitory concentration (IC50) in assay [1] worked out at 81.1 nM; in assay [2] (setting [5]), 38.8 nM; in assay [3] (setting [6]), 44.3 nM; in assay [4] (ASPC1, 2 h, KRAS-G12D, 2 hours) it was 764 nM.
`CC1(C)C2CN(C[C@@]3(COc4nc(N5CCOC[C@@](C)(O)C5)c5c(n4)sc4c(-c6c(C7(F)CC7)c(Cl)cc7[nH]ncc67)nccc45)CC3(F)F)CC21` (stereo partly drawn) [Ex-234, (6S)-4-(8-(6-chloro-5-(1-fluorocyclopropyl)-1H-indazol-4-yl)-2-(((1R)-1-((6,6-dimethyl-3-azabicyclo[3.1.0]hexan-3-yl)methyl)-2,2-difluorocyclopropyl)methoxy)pyrido[4′,3′:4,5]thieno[2,3-d]pyrimidin-4-yl)-6-methyl-1,4-oxazepan-6-ol]: the IC50 in assay [1] is 389 nM; in assay [2] (setting [5]), 27.4 nM; in assay [3] (setting [6]), 107 nM; in assay [4] (setting [7]) it was 1520 nM.
Taken in the same sequence, the figures for `COC1CC2(C1)CN(C[C@@]1(COc3nc(N4CCOC[C@@](C)(O)C4)c4c(n3)sc3c(-c5c(C6(F)CC6)c(Cl)cc6[nH]ncc56)nccc34)CC1(F)F)C2` [Ex-263, (6S)-4-(8-(6-chloro-5-(1-fluorocyclopropyl)-1H-indazol-4-yl)-2-(((R)-2,2-difluoro-1-((6-methoxy-2-azaspiro[3.3]heptan-2-yl)methyl)cyclopropyl)metho-xy)pyrido[4′,3′:4,5]thieno[2,3-d]pyrimidin-4-yl)-6-methyl-1,4-oxazepan-6-ol] were 11.4 nM, 3.02 nM, 12.5 nM and 111 nM.
The corresponding values for `C[C@@]1(O)COCCN(c2nc(OC[C@]3(CN4C[C@H]5CCO[C@H]5C4)CC3(F)F)nc3sc4c(-c5c(C6(F)CC6)c(Cl)cc6[nH]ncc56)nccc4c23)C1` [Ex-254, (6S)-4-(8-(6-chloro-5-(1-fluorocyclopropyl)-1H-indazol-4-yl)-2-(((R)-2,2-difluoro-1-(((3aR,6aR)-hexahydro-5H-furo[2,3-c]pyrrol-5-yl)methyl)cyclopropyl)metho-xy)pyrido[4′,3′:4,5]thieno[2,3-d]pyrimidin-4-yl)-6-methyl-1,4-oxazepan-6-ol] are 59.7 nM, 6.96 nM, 91.9 nM and 315 nM.
Take `CO[C@H]1C[C@@H](COc2nc(N3CCOC[C@@](C)(O)C3)c3c(n2)sc2c(-c4c(C5CC5)c(C(F)(F)F)cc5[nH]ncc45)nccc23)N(C)C1` [Ex-84, (6S)-4-(8-(5-cyclopropyl-6-(trifluoromethyl)-1H-indazol-4-yl)-2-(((2S,4S)-4-methoxy-1-methylpyrrolidin-2-yl)methoxy)pyrido[4′,3′:4,5]thi-eno[2,3-d]pyrimidin-4-yl)-6-methyl-1,4-oxazepan-6-ol]: the IC50 in assay [1] was found to be 1380 nM; in assay [2] (setting [5]), 670 nM; in assay [3] (setting [6]), 847 nM; in assay [4] (ASPC1, 2 h, KRAS-G12D, 2 hours) it was 2890 nM.
As to `F[C@H]1CN2CCC[C@@]2(COc2nc(N3CCCOCC3)c3c(n2)sc2c(-c4c(C5CC5)c(Cl)cc5[nH]ncc45)nncc23)C1` [Ex-286], the IC50 in assay [1] worked out at 52 nM; in assay [2] (setting [5]), 205 nM; in assay [3] (setting [6]) it was 50.3 nM; in assay [4] (ASPC1, 2 h, KRAS-G12D, 2 hours), 1110 nM.
With `CC1CCc2cccc(-c3nccc4c3sc3nc(OC[C@@]56CCCN5C[C@H](F)C6)nc(N5CCOC[C@@](C)(O)C5)c34)c21` (single isomer, unassigned) [Ex-117], the IC50 was 218 nM in assay [1]; 73.6 nM in assay [2] (setting [5]); 96.1 nM in assay [3] (setting [6]); 720 nM in assay [4] (ASPC1, 2 h, KRAS-G12D, 2 hours).
With `Cc1c(Cl)cccc1-c1nccc2c1sc1nc(OC[C@@]34CCCN3C[C@H](F)C4)nc(N3CCOC[C@@](C)(O)C3)c12` [Ex-121, (S)-4-(8-(3-chloro-2-methylphenyl)-2-(((2R,7aS)-2-fluorotetrahydro-1H-pyrrolizin-7a(5H)-yl)methoxy)pyrido[4′,3′:4,5]thi-eno[2,3-d]pyrimidin-4-yl)-6-methyl-1,4-oxazepan-6-ol], the IC50 in assay [1] was 1030 nM; in assay [2] (setting [5]), 369 nM; in assay [3] (setting [6]) it was 278 nM; in assay [4] (ASPC1, 2 h, KRAS-G12D, 2 hours) it was 3430 nM.
For `C[C@@]1(O)COCCN(c2nc(OC[C@]3(CN4C[C@@H]5CCCO[C@H]5C4)CC3(F)F)nc3sc4c(-c5c(C6(F)CC6)c(Cl)cc6[nH]ncc56)nccc4c23)C1` [Ex-252, (6S)-4-(8-(6-chloro-5-(1-fluorocyclopropyl)-1H-indazol-4-yl)-2-(((R)-2,2-difluoro-1-(((4aS,7aR)-hexahydropyrano[2,3-c]pyrrol-6(2H)-yl)methyl)cyclopropyl)methoxy)pyrido[4′,3′:4,5]thieno[2,3-d]pyrimidin-4-yl)-6-methyl-1,4-oxazepan-6-ol], the IC50 was 57.8 nM in assay [1], 4.96 nM in assay [2] (setting [5]), 32.2 nM in assay [3] (setting [6]) and 232 nM in assay [4] (setting [7]).
As for `C[C@@]1(O)COCCN(c2nc(OC[C@@]34CCCN3C[C@H](F)C4)nc3sc4c(-c5cccc(Cl)c5[Si](C)(C)C)nccc4c23)C1` [Ex-123, (S)-4-(8-(3-chloro-2-(trimethylsilyl)phenyl)-2-(((2R,7aS)-2-fluorotetrahydro-1H-pyrrolizin-7a(5H)-yl)methoxy)pyri-do[4′,3′:4,5]thieno[2,3-d]pyrimidin-4-yl)-6-methyl-1,4-oxazepan-6-ol], the IC50 in assay [1] amounted to 434 nM; in assay [2] (KRAS G12D GNE IC50, nucleotide exchange) it was 173 nM; in assay [3] (KRAS G12V GNE IC50, nucleotide exchange) it was 157 nM; in assay [4] (ASPC1, KRAS-G12D, 2 hours) it was 2060 nM.
As to `Cc1cc2[nH]ncc2c(-c2nccc3c2sc2nc(OC[C@@]45CCCN4C[C@H](F)C5)nc(N4CCC[C@]5(CCO5)C4)c23)c1C(F)(F)F` [Ex-200], the IC50 was found to be 474 nM in assay [1], 141 nM in assay [2] (setting [5]), 92.9 nM in assay [3] (setting [6]) and 613 nM in assay [4] (setting [7]).
As to `Cc1cc2[nH]ncc2c(-c2nccc3c2sc2nc(OC[C@@]45CCCN4C[C@H](F)C5)nc(N4CCOCC(O)(CF)C4)c23)c1C(F)(F)F` (stereo partly drawn) [Ex-202, 6-(fluoromethyl)-4-(2-(((2R,7aS)-2-fluorotetra-hydro-1H-pyrrolizin-7a(5H)-yl)methoxy)-8-(6-methyl-5-(trifluoro-methyl)-1H-indazol-4-yl)-pyrido[4′,3′:4,5]thieno [2,3-d]pyrimidin-4-yl)-1,4-oxazepan-6-ol], the IC50 in assay [1] turned out to be 292 nM; in assay [2] (setting [5]) it was 97.5 nM; in assay [3] (setting [6]), 229 nM; in assay [4] (setting [7]), 701 nM.
Taken in the same sequence, the figures for `C[C@@]1(O)COCCN(c2nc(OC[C@]3(CN4CC5CC5C4)CC3(F)F)nc3sc4c(-c5c(C6(F)CC6)c(Cl)cc6[nH]ncc56)nccc4c23)C1` (stereo partly drawn) [Ex-237, (6S)-4-(2-(((1R)-1-((3-azabicyclo[3.1.0]hexan-3-yl)methyl)-2,2-difluorocyclopropyl)methoxy)-8-(6-chloro-5-(1-fluorocyclopropyl)-1H-indazol-4-yl)pyrido[4′,3′:4,5]thieno[2,3-d]pyrimidin-4-yl)-6-methyl-1,4-oxazepan-6-ol] were 158 nM, 24.9 nM, 32.9 nM and 293 nM.
Take `Cc1cc2[nH]ncc2c(-c2nccc3c2sc2nc(O[C@@H](C)[C@@H]4CCCN4C)nc(N4CCOC[C@@](C)(O)C4)c23)c1C(F)(F)F` [Ex-204, (6S)-6-methyl-4-(8-(6-methyl-5-(trifluoromethyl)-1H-indazol-4-yl)-2-((S)-1-((S)-1-methylpyrrolidin-2-yl)ethoxy)pyrido[4′,3′:4,5]thieno[2,3-d]pyrimidin-4-yl)-1,4-oxazepan-6-ol]: the concentration for half-maximal inhibition (IC50) was 936 nM in assay [1], 339 nM in assay [2] (setting [5]), 239 nM in assay [3] (setting [6]) and 2310 nM in assay [4] (setting [7]).
For `COCc1cc2[nH]ncc2c(-c2nccc3c2sc2nc(OC[C@@]45CCCN4C[C@H](F)C5)nc(N4CCOC[C@@](C)(O)C4)c23)c1C1CC1` [Ex-50, (6S)-4-(8-(5-cyclopropyl-6-(methoxymethyl)-1H-indazol-4-yl)-2-(((2R,7aS)-2-fluorotetrahydro-1H-pyrrolizin-7a(5H)-yl)methoxy)pyrido[4′,3′:4,5]thi-eno[2,3-d]pyrimidin-4-yl)-6-methyl-1,4-oxazepan-6-ol], the IC50 amounted to 326 nM in assay [1]; 243 nM in assay [2] (setting [5]); 291 nM in assay [3] (setting [6]); 3960 nM in assay [4] (ASPC1, 2 h, KRAS-G12D, 2 hours).

For orientation: IC50 means the point on the concentration scale where inhibition reaches its midpoint.

These data come from patent US20260176289A1, “SMALL MOLECULE INHIBITORS OF KRAS PROTEINS” (Merck Sharp & Dohme LLC, priority 2022, published 2026).
